The results in this text go back to patent US11905294B2, “Imidazo[1,5-a]pyrazine derivatives as PI3Kδ inhibitors” (BEIGENE, LTD., priority 2017, dated 2024).

Format in all cases: biochemical
One assay concerns the target PI3K (p110γ) (Homo sapiens, UniProt P48736). Put plainly: PI3Kγ assay (ADP-Glo Kinase Assay). As to conditions: recombinant enzyme; IC50 (nM) or max inhibition (%) at 0.5 μM.
Another assay deals with PI3K (p110β/p85α) (Homo sapiens, UniProt P42338). In words: PI3Kβ assay (ADP-Glo Kinase Assay). The settings on record: read-out: Enzyme activity IC50 PI3Kβ.
The next assay deals with PI3K (p110δ/p85α) (Homo sapiens, UniProt O00329). Put plainly: PI3Kδ assay (ADP-Glo Kinase Assay). The settings on record: recombinant enzyme; IC50 (nM) or max inhibition (%) at 0.5 μM. The method, then: Compounds disclosed herein were tested for inhibition of PI3Kδ kinase activity using commercial ADP-Glo™ Kinase Assay (Promega Corporation) and following the manufacture's instruction. Briefly, recombinant PI3K (p110δ/p85α) enzyme, lipid kinase substrate and a serial dilution of compounds disclosed herein were incubated for 0.5 hr at room temperature. ATP was added to initiate the kinase reaction. After incubation for 1 hr at room temperature, ADP-Glo™ reagent was added to terminate the kinase reaction and deplete the remaining ATP. After incubation for 1 hr at room temperature, kinase detection reagent was added to simultaneously convert ADP to ATP and allow the newly synthesized ATP to be measured using a luciferase/luciferin reaction. After incubation for 0.5 hr at room temperature, the luminescence generated was measured on a PHERAstar FS plate reader (BMG LABTECH). The residual enzyme activity in presence of increasing concentrations of compounds was calculated based on the luminescence. The IC50 for each compound was derived from fitting the data to the four-parameter logistic equation by Graphpad Prism software.
In general terms: In ADP-Glo the light output rises with the ADP produced.

The next assay has as its target PI3K (p110α/p85α) (Homo sapiens, UniProt P42336). In words: PI3Kα assay (ADP-Glo Kinase Assay). The settings on record: recombinant enzyme; IC50 (nM) or max inhibition (%) at 0.5 μM.

Sequence of PI3K (p110α/p85α) (P42336 whole entry): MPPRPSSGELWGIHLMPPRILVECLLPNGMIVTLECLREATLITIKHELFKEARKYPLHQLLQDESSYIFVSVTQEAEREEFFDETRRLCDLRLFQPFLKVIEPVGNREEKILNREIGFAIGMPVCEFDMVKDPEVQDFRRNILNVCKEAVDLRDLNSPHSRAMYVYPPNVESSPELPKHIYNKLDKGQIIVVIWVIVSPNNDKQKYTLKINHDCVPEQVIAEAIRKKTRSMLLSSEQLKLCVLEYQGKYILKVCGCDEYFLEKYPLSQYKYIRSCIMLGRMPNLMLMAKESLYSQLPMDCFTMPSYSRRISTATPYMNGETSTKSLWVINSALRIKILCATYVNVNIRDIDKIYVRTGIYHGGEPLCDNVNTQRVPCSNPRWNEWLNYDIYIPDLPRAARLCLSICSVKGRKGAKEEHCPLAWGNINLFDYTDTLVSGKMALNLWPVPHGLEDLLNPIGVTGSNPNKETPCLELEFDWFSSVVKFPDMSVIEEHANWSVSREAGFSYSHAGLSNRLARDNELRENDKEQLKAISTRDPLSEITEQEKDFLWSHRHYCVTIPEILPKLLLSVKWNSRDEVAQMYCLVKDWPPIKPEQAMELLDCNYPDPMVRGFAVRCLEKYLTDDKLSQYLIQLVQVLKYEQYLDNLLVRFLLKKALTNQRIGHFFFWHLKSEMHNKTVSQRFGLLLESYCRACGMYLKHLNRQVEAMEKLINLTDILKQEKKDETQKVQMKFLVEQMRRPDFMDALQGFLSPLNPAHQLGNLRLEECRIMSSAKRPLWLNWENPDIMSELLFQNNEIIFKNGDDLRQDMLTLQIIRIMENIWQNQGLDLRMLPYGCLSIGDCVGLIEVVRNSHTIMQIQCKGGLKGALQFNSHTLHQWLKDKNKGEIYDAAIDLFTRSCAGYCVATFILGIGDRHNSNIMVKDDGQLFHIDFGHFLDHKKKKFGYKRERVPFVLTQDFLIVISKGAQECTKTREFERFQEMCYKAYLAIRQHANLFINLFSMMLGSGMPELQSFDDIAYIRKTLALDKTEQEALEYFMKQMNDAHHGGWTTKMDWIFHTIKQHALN
Sequence of PI3K (p110α/p85α) (P27986 whole entry partner): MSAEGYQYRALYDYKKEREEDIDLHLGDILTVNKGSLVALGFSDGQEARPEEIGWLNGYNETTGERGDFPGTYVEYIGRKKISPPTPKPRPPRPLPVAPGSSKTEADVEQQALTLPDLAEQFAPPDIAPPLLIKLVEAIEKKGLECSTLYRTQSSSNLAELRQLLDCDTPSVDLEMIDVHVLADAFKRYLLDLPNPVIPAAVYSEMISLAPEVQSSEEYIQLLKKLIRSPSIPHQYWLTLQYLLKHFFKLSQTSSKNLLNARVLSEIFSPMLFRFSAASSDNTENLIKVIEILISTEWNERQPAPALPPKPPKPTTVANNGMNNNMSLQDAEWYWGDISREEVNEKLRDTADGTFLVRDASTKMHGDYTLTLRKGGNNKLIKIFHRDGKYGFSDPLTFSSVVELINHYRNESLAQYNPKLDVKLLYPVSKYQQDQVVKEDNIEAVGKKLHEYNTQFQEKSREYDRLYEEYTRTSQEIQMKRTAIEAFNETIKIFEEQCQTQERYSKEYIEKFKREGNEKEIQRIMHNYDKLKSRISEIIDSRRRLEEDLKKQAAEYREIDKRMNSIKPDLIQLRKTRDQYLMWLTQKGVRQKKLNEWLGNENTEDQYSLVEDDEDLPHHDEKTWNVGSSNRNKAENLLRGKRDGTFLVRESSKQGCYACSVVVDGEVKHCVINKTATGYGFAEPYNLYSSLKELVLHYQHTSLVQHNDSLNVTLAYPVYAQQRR
Sequence of PI3K (p110γ) (P48736 whole entry): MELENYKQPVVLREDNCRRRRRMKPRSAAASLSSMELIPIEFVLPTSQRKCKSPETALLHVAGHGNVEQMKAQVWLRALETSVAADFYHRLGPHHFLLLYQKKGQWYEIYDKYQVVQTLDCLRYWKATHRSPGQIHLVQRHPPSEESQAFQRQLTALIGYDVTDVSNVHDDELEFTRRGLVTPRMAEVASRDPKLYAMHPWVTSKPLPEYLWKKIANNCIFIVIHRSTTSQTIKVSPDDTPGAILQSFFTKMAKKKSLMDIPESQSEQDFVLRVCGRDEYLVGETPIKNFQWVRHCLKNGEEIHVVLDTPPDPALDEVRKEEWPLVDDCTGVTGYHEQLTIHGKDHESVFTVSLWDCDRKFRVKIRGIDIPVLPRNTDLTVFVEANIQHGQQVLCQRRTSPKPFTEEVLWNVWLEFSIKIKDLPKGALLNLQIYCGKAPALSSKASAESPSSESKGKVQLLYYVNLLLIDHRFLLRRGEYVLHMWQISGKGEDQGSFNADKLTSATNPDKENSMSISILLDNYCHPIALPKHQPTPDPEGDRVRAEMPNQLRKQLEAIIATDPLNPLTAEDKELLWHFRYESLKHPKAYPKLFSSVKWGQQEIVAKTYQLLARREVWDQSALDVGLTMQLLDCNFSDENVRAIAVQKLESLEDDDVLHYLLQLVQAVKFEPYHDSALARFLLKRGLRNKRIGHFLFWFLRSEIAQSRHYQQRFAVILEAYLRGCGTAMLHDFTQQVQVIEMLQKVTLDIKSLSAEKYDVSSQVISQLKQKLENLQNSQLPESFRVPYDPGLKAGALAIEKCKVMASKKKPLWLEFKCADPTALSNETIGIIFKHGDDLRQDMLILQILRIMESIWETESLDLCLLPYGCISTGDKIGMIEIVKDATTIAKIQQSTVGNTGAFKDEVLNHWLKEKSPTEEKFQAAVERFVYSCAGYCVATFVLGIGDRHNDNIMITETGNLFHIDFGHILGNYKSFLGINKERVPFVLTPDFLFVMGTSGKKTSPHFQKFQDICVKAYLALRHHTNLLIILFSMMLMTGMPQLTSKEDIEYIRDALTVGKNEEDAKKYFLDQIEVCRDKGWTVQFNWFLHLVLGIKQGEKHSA
Sequence of PI3K (p110δ/p85α) (O00329 whole entry): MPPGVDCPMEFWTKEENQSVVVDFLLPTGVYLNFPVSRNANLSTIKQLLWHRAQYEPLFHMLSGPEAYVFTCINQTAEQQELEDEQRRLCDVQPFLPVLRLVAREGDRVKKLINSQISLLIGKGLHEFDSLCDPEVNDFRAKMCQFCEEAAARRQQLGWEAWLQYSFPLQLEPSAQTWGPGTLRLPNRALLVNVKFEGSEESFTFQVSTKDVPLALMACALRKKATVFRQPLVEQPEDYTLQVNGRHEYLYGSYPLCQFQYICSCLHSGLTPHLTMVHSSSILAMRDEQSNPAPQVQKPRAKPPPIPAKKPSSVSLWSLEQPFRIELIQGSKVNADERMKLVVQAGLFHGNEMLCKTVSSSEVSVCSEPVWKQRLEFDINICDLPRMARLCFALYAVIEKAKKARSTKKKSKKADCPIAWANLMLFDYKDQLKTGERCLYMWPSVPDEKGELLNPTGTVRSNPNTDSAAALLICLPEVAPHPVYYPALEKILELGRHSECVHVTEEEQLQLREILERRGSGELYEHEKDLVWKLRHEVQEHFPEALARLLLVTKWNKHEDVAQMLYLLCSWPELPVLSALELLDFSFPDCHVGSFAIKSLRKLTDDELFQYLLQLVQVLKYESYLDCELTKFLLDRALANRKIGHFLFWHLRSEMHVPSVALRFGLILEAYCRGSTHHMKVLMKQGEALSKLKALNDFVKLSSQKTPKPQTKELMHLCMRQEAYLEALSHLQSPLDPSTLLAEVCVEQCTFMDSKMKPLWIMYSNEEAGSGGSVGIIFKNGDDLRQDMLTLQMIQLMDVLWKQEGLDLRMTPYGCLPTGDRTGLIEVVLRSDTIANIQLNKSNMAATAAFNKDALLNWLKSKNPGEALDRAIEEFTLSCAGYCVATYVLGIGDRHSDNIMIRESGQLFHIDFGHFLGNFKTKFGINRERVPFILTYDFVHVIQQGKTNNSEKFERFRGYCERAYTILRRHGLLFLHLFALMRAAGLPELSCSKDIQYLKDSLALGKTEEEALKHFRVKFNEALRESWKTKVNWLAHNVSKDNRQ
Sequence of PI3K (p110δ/p85α) (P27986 whole entry partner): as the sequence (P27986 whole entry partner) above
Sequence of PI3K (p110β/p85α) (P42338 whole entry): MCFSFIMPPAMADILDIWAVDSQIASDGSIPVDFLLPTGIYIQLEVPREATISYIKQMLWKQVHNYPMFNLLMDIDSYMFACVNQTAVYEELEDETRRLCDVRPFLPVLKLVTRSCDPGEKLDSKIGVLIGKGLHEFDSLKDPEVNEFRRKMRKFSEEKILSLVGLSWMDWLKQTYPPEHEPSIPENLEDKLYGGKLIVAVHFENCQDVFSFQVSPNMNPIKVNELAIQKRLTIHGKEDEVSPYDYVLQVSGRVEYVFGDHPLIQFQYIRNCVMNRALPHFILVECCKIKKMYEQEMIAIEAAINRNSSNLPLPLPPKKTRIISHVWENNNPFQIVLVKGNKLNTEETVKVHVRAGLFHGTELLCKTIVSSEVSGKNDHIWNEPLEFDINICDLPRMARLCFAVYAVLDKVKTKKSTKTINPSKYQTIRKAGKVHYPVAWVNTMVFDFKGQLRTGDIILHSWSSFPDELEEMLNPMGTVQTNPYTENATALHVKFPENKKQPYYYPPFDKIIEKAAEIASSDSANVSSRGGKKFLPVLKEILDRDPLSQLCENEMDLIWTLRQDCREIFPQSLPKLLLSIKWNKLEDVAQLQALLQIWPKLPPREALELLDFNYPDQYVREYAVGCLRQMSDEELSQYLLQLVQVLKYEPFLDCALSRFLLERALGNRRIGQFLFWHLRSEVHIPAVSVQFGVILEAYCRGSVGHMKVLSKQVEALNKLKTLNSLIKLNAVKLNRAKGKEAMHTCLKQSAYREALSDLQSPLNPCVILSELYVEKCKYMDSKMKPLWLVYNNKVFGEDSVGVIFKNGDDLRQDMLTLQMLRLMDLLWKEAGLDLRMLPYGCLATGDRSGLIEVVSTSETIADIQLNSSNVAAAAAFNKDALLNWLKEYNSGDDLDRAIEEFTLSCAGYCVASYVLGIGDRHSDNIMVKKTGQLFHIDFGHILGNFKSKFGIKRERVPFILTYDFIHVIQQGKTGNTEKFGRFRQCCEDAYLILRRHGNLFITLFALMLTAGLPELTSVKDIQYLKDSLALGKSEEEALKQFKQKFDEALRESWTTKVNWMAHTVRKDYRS
Sequence of PI3K (p110β/p85α) (P27986 whole entry partner): as the sequence (P27986 whole entry partner) above

For the compound `Cc1nc(C(C)c2cc(Cl)c(F)c(C(=O)N3CCOCC3)c2OC(C)C)n2ccnc(N)c12` (single isomer, unassigned) [Compound 4A], the half-maximal inhibitory concentration (IC50) was 2000 nM at PI3K (p110γ), 11 µM at PI3K (p110β/p85α), 1 nM on PI3K (p110δ/p85α) and 13000 nM on PI3K (p110α/p85α).

Consider `Cc1nc(C(C)c2cc(Cl)c(F)c(C(=O)N3CCOCC3)c2OC(C)C)n2ccnc(N)c12` (single isomer, unassigned) [Compound 4B], for which the IC50 at PI3K (p110δ/p85α) is above 1000 nM.

Regarding `Cc1nc(C(C)c2cc(Cl)c(F)c(C(=O)N3CCC(F)(F)CC3)c2OC(C)C)n2ccnc(N)c12` (single isomer, unassigned) [Compound 13A], the IC50 at PI3K (p110γ) is 9300 nM; at PI3K (p110β/p85α), above 50 µM; on PI3K (p110δ/p85α) it was 3 nM; at PI3K (p110α/p85α) it was 20000 nM.

On to `Cc1nc(C(C)c2cc(Cl)c(F)c(C(=O)N3CCC(F)(F)CC3)c2OC(C)C)n2ccnc(N)c12` (single isomer, unassigned) [Compound 13B], for which the half-maximal inhibitory concentration (IC50) at PI3K (p110δ/p85α) was above 1000 nM.

With `Cc1nc(C(C)c2cc(Cl)c(F)c(C(=O)N[C@H]3CC[C@@H](O)C3)c2OC(C)C)n2ccnc(N)c12` (single isomer, unassigned) [Compound 14A], the concentration for half-maximal inhibition (IC50) was determined as 7900 nM at PI3K (p110γ), 13 µM at PI3K (p110β/p85α), 1.4 nM on PI3K (p110δ/p85α) and 18000 nM at PI3K (p110α/p85α).

On to `Cc1nc(C(C)c2cc(Cl)c(F)c(C(=O)N[C@H]3CC[C@@H](O)C3)c2OC(C)C)n2ccnc(N)c12` (single isomer, unassigned) [Compound 14B], for which, at PI3K (p110δ/p85α), the IC50 turned out to be 320 nM.

Consider `Cc1nc(C(C)c2cc(Cl)c(F)c(C(=O)N3CC(C(=O)O)C3)c2OC(C)C)n2ccnc(N)c12` (stereo not shown) [Compound 1, 1-(3-(1-(8-amino-1-methylimidazo[1,5-a]pyrazin-3-yl)ethyl)-5-chloro-6-fluoro-2-isopropoxybenzoyl)azetidine-3-carboxylic acid], for which the IC50 on PI3K (p110γ) is 9800 nM; at PI3K (p110β/p85α), above 50 µM; on PI3K (p110δ/p85α) it was 9.7 nM; on PI3K (p110α/p85α) it was above 50000 nM.

As to `Cc1nc(C(C)c2cc(Cl)c(F)c(C(=O)NC3(C(=O)O)CC3)c2OC(C)C)n2ccnc(N)c12` (stereo not shown) [Compound 2, 1-(3(1-(8-amino-1-methylimidazo[1,5-a]pyrazin-3-yl)ethyl)-5-chloro-6-fluoro-2-isopropoxybenzamido)cyclopropane-1-carboxylic acid], the IC50 at PI3K (p110γ) was 5500 nM; at PI3K (p110β/p85α) it was above 50 µM; on PI3K (p110δ/p85α), 14 nM; on PI3K (p110α/p85α), above 50000 nM.

As to `Cc1nc(C(C)c2cc(Cl)c(F)c(C(=O)N3CC(O)C3)c2OC(C)C)n2ccnc(N)c12` (stereo not shown) [Compound 3, (3-(1-(8-amino-1-methylimidazo[1,5-a]pyrazin-3-yl)ethyl)-5-chloro-6-fluoro-2-isopropoxyphenyl)(3-hydroxyazetidin-1-yl)methanone], the IC50 on PI3K (p110γ) stood at 19000 nM; at PI3K (p110β/p85α) it was 34 µM; at PI3K (p110δ/p85α), 6.3 nM; at PI3K (p110α/p85α), 49000 nM.

On to `Cc1nc(C(C)c2cc(Cl)c(F)c(C(=O)N3CCOCC3)c2OC(C)C)n2ccnc(N)c12` (stereo not shown) [Compound 4, (3-(1-(8-amino-1-methylimidazo[1,5-a]pyrazin-3-yl)ethyl)-5-chloro-6-fluoro-2-isopropoxyphenyl)(morpholino)methanone], for which the concentration for half-maximal inhibition (IC50) on PI3K (p110γ) is 3100 nM; on PI3K (p110β/p85α) it was 24 µM; at PI3K (p110δ/p85α) it was 1.9 nM; on PI3K (p110α/p85α), 25000 nM.

Regarding `Cc1nc(C(C)c2cc(Cl)c(F)c(C(=O)NC3(CO)CC3)c2OC(C)C)n2ccnc(N)c12` (stereo not shown) [Compound 5, 3-(1-(8-amino-1-methylimidazo[1,5-a]pyrazin-3-yl)ethyl)-5-chloro-6-fluoro-N-(1-(hydroxymethyl)cyclopropyl)-2-isopropoxybenzamide], the concentration for half-maximal inhibition (IC50) on PI3K (p110γ) came to 10000 nM; on PI3K (p110β/p85α), 16 µM; on PI3K (p110α/p85α), 56000 nM.

Consider `Cc1nc([C@@H](C)c2cc(Cl)c(F)c(C(=O)NC3(CO)CC3)c2OC(C)C)n2ccnc(N)c12` [Compound 5A], for which the 50% inhibitory concentration (IC50) at PI3K (p110γ) came to 6300 nM; on PI3K (p110β/p85α), 20 µM; at PI3K (p110α/p85α), 21000 nM.

As for `Cc1nc(C(C)c2cc(Cl)c(F)c(C(=O)N3CC[C@H](O)C3)c2OC(C)C)n2ccnc(N)c12` (stereo partly drawn) [Compound 6, (3-(1-(8-amino-1-methylimidazo[1,5-a]pyrazin-3-yl)ethyl)-5-chloro-6-fluoro-2-isopropoxyphenyl)((S)-3-hydroxypyrrolidin-1-yl)methanone], the IC50 on PI3K (p110γ) is 17000 nM; on PI3K (p110β/p85α), above 50 µM; at PI3K (p110δ/p85α), 2.9 nM; on PI3K (p110α/p85α), above 50000 nM.

As to `Cc1nc(C(C)c2cc(Cl)c(F)c(C(=O)N3CCC(O)CC3)c2OC(C)C)n2ccnc(N)c12` (stereo not shown) [Compound 7, (3-(1-(8-amino-1-methylimidazo[1,5-a]pyrazin-3-yl)ethyl)-5-chloro-6-fluoro-2-isopropoxyphenyl)(4-hydroxypiperidin-1-yl)methanone], the IC50 on PI3K (p110γ) was 17000 nM; at PI3K (p110β/p85α), above 50 µM; at PI3K (p110δ/p85α), 6 nM; on PI3K (p110α/p85α) it was above 50000 nM.

On to `Cc1nc([C@@H](C)c2cc(Cl)c(F)c(C(=O)N3CCC[C@H](O)C3)c2OC(C)C)n2ccnc(N)c12` [Compound 20, (3-((S)-1-(8-amino-1-methylimidazo[1,5-a]pyrazin-3-yl)ethyl)-5-chloro-6-fluoro-2-isopropoxyphenyl)((S)-3-hydroxypiperidin-1-yl)methanone], for which, at PI3K (p110δ/p85α), the IC50 was 2.1 nM.

Regarding `Cc1nc([C@@H](C)c2cc(Cl)c(F)c(C(=O)N[C@H](C)c3ccccc3)c2OC(C)C)n2ccnc(N)c12` [Compound 22, 3-((S)-1-(8-amino-1-methylimidazo[1,5-a]pyrazin-3-yl)ethyl)-5-chloro-6-fluoro-2-isopropoxy-N-((R)-1-phenylethyl)benzamide], the half-maximal inhibitory concentration (IC50) on PI3K (p110δ/p85α) was determined as 3.7 nM.

For the compound `Cc1nc([C@@H](C)c2cc(Cl)c(F)c(C(=O)N[C@@H]3CCC[C@@H]3O)c2OC(C)C)n2ccnc(N)c12` [Compound 23, 3((S)-1-(8-amino-1-methylimidazo[1,5-a]pyrazin-3-yl)ethyl)-5-chloro-6-fluoro-N-((1R,2S)-2-hydroxycyclopentyl)-2-isopropoxybenzamide], at PI3K (p110δ/p85α), the half-maximal inhibitory concentration (IC50) was determined as 9.9 nM.

Take `Cc1nc([C@@H](C)c2cc(Cl)c(F)c(C(=O)N(C)C)c2OC(C)C)n2ccnc(N)c12` [Compound 32, (S)-3-(1-(8-amino-1-methylimidazo[1,5-a]pyrazin-3-yl)ethyl)-5-chloro-6-fluoro-2-isopropoxy-N,N-dimethylbenzamide]: at PI3K (p110δ/p85α), the concentration for half-maximal inhibition (IC50) was determined as 3.2 nM.

For `Cc1nc([C@@H](C)c2cc(Cl)c(F)c(C(=O)N[C@]3(C)CC[C@@H](O)CC3)c2OC(C)C)n2ccnc(N)c12` [Compound 40, 3-((S)-1-(8-amino-1-methylimidazo[1,5-a]pyrazin-3-yl)ethyl)-5-chloro-6-fluoro-N-((1R,4S)-4-hydroxy-1-methylcyclohexyl)-2-isopropoxybenzamide], the IC50 at PI3K (p110δ/p85α) was 6.5 nM.

In the case of `Cc1nc([C@@H](C)c2cc(Cl)c(F)c(C(=O)N[C@@H]3CCCC[C@@H]3O)c2OC(C)C)n2ccnc(N)c12` [Compound 48, 3-((S)-1-(8-amino-1-methylimidazo[1,5-a]pyrazin-3-yl)ethyl)-5-chloro-6-fluoro-N-((1R,2S)-2-hydroxycyclohexyl)-2-isopropoxybenzamide], at PI3K (p110δ/p85α), the IC50 came out at 9.1 nM.

Take `Cc1nc([C@@H](C)c2cc(Cl)c(F)c(C(=O)N[C@@H]3CCCC[C@H]3O)c2OC(C)C)n2ccnc(N)c12` [Compound 49, 3-((S)-1-(8-amino-1-methylimidazol[1,5-a]pyrazin-3-yl)ethyl)-5-chloro-6-fluoro-N-((1R,2R)-2-hydroxycyclohexyl)-2-isopropoxybenzamide]: on PI3K (p110δ/p85α), the IC50 was 3.9 nM.

On to `Cc1nc([C@@H](C)c2cc(Cl)c(F)c(C(=O)NC3(CN(C)C)CC3)c2OC(C)C)n2ccnc(N)c12` [Compound 54, (S)-3-(1-(8-amino-1-methylimidazo[1,5-a]pyrazin-3-yl)ethyl)-5-chloro-N-(1-((dimethylamino)methyl)cyclopropyl)-6-fluoro-2-isopropoxybenzamide], for which the 50% inhibitory concentration (IC50) on PI3K (p110δ/p85α) was 11 nM.

With `CO[C@H]1CCCN(C(=O)c2c(F)c(Cl)cc([C@H](C)c3nc(C)c4c(N)nccn34)c2OC(C)C)C1` [Compound 65, (3-((S)-1-(8-amino-1-methylimidazo[1,5-a]pyrazin-3-yl)ethyl)-5-chloro-6-fluoro-2-isopropoxyphenyl)((S)-3-methoxypiperidin-1-yl)methanone], the IC50 is 6900 nM at PI3K (p110γ), above 50 µM at PI3K (p110β/p85α) and 2.9 nM on PI3K (p110δ/p85α).

Regarding `Cc1nc([C@@H](C)c2cc(Cl)c(F)c(C(=O)N3C[C@@H](C)O[C@@H](C)C3)c2OC(C)C)n2ccnc(N)c12` [Compound 67, (3-((S)-1-(8-amino-1-methylimidazo[1,5-a]pyrazin-3-yl)ethyl)-5-chloro-6-fluoro-2-isopropoxyphenyl)((2R,6S)-2,6-dimethylmorpholino)methanone], the 50% inhibitory concentration (IC50) at PI3K (p110δ/p85α) was 8 nM.

On to `Cc1nc([C@@H](C)c2cc(Cl)c(F)c(C(=O)N[C@H](C)[C@@H](C)O)c2OC(C)C)n2ccnc(N)c12` [Compound 72, 3-((S)-1-(8-amino-1-methylimidazo[1,5-a]pyrazin-3-yl)ethyl)-5-chloro-6-fluoro-N-((2R,3R)-3-hydroxybutan-2-yl)-2-isopropoxybenzamide], for which the IC50 at PI3K (p110δ/p85α) was found to be 6.8 nM.

A word on the IC50: it is the concentration needed to halve the response being measured.
